inhibition, Activity and Ki data for 1 molecule are collected here from ChEMBL document CHEMBL1122424, “S-carbobenzoxyglutathione: a competitive inhibitor of mammalian glyoxalase II” (J Med Chem, 1983).

Calls of active or inactive are those of the source. The calls are words filed in the database; no cut-off is given here.

In assay [1] the target is Hydroxyacylglutathione hydrolase, mitochondrial (Rattus norvegicus) (UniProt O35952). Nature of the assay: (§1) […] inhibitory activity against glyoxalase II in rat liver. The class given is functional. The following applies: concentration not given here.
For assay [2], the target named is Lactoylglutathione lyase (Mus musculus) (UniProt Q9CPU0). The experiment in a line: […] inhibitory activity against glyoxalase I in mouse liver; no inhibition. The assay is classed as functional.
Lactoylglutathione lyase (Mus musculus), sequence (Q9CPU0 2-184 limits assumed): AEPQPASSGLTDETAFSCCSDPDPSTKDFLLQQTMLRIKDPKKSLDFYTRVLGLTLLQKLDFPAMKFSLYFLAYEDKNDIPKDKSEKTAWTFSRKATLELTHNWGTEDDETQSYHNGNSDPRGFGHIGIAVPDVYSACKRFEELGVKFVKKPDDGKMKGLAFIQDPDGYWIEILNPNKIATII
Assay [3] deals with Lactoylglutathione lyase (Ovis aries). The experiment in a line: […] inhibitory activity against glyoxalase I in sheep liver; no inhibition.
Assay [4] addresses T1, Lactoylglutathione lyase (Rattus norvegicus) (UniProt Q6P7Q4).
T1 sequence (whole entry): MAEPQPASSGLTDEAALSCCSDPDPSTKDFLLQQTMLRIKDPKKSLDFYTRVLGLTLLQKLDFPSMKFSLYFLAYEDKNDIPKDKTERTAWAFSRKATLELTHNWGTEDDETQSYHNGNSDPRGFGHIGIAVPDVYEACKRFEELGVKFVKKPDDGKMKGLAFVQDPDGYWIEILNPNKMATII
The experiment in a line: […] inhibitory activity against glyoxalase I in rat liver; no inhibition. The class given is functional.

For assay [5], the target named is T1, Lactoylglutathione lyase (Rattus norvegicus). Nature of the assay: In vivo inhibitory activity against glyoxalase I in rat liver. The assay is classed as functional. The following applies: concentration not given here.
The target in assay [6] is Hydroxyacylglutathione hydrolase, mitochondrial (Rattus norvegicus, UniProt O35952). The assay is described as §1.

Turning to `N[C@@H](CCC(=O)N[C@@H](CSC(=O)OCc1ccccc1)C(=O)NCC(=O)O)C(=O)O`, the inhibition in assay [1] is more than 50%; in assay [5], less than 10%. The result in assay [2], in assay [3] and in assay [4] was inactive. The same molecule showed a Ki in assay [6] of 65 µM.

As a reminder, the inhibition is how much of the control response was suppressed. Lower therefore signals a response near the control. The Ki is a measure of affinity in units of concentration, obtained from inhibition or displacement.
